Melting point, inhibition and IC50 data for ten compounds are collected here from US8263606B2 (Xenon Pharmaceuticals Inc., priority 2008, dated 2012).

The target in one data set is CYP3A4 (Homo sapiens, UniProt P08684). The data set can be described thus: Cytochrome P450 (CYP450) Inhibition Assay, CYP3A4 (Vivid fluorescence, BOMCC substrate). To be noted: human, P450 Baculosomes (recombinant CYP3A4), probe BOMCC (Vivid substrate).
In the next data set the test system is sodium channel. The data set can be described thus: Guanidine influx assay (14C-guanidine radiotracer flux, in vitro). Type of data set: cell-based, human or rat. To be noted: guanidine influx assay using a known cell line that expresses a sodium channel; activity level class. The essentials: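 Aconitine holds channels open while 14C-guanidine enters human or rat sodium-channel-expressing cells in choline-substituted low-sodium saline, with test agent present at ambient temperature. Retained tracer is scintillation-counted and IC50 fitted by a four-parameter logistic model.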

Structures are written as SMILES.

Sequence of CYP3A4 (P08684 whole entry): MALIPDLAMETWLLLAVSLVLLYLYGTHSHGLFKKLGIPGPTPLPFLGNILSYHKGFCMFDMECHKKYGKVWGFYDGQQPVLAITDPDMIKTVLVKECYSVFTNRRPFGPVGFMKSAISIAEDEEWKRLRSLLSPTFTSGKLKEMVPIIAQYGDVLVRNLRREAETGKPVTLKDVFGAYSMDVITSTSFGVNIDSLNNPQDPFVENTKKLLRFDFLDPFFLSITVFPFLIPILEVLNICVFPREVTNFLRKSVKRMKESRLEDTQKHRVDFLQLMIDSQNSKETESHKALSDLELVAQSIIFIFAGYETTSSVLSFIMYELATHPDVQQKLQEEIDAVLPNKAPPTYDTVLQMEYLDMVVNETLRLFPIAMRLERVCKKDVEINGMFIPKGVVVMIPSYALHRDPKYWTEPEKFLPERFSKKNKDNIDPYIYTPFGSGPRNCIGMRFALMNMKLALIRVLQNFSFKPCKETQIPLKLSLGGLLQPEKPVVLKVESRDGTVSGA

As to `O=C1N(Cc2ccc(OCc3ccccc3)cc2)c2ccccc2C12COc1cc3c(cc12)OCCO3` (stereo not drawn) [Example 9.37, 1′-[4-(benzyloxy)benzyl]-2,3-dihydrospiro[furo[2,3-g][1,4]benzodioxine-8,3′-indol]-2′(1′H)-one], the melting point lay in the range of 87 to 89 °C. Also, the inhibition at 10 µM at CYP3A4 is under 50%. Further, the half-inhibitory concentration (IC50) with sodium channel is 100 to 1000 nM.
The matching figures for `O=C1N(Cc2ccc(OCc3ccccc3)cc2)c2ccccc2C12COc1cc3c(cc12)CCO3` (stereo not drawn) [Example 9.38, 1′-[4-(benzyloxy)benzyl]-5,6-dihydrospiro[benzo[1,2-b:5,4-b′]difuran-3,3′-indol]-2′(1′H)-one]: 169 to 170 °C, under 50% and 100 to 1000 nM.
For `O=C1N(Cc2ccc(OCc3ccccc3)cc2)c2ccccc2[C@]12COc1cc3c(cc12)OCCO3` [Example 9.39, (8S)-1′-[4-(Benzyloxy)Benzyl]-2,3-Dihydrospiro[Furo[2,3-g][1,4]Benzodioxine-8,3′-Indol]-2′(1′H)-One] the same measures were 151 to 153 °C, under 50% and 100 to 1000 nM.
The matching figures for `CC(C)(C)OC(=O)Nc1ccc(CN2C(=O)C3(COc4cc5c(cc43)OCCO5)c3ccccc32)cn1` (stereo not drawn) [Example 9.40, tert-butyl {5-[(2′-oxo-2,3-dihydrospiro[furo[2,3-g][1,4]benzodioxine-8,3′-indol]-1′(2′H)-yl)methyl]pyridin-2-yl}carbamate]: 238 to 239 °C, under 50% and 100 to 1000 nM.
`Cc1noc2cc3c(cc12)C1(CO3)C(=O)N(Cc2ccccc2C(F)(F)F)c2ccccc21` (stereo not drawn) [Example 9.41, 3-methyl-1′-[2-(trifluoromethyl)benzyl]spiro[furo[3,2-f][1,2]benzisoxazole-5,3′-indol]-2′(1′H)-one] showed a melting point of 192 to 194 °C. The inhibition at 10 µM at CYP3A4 was over 50%. In addition, the IC50 in the data set on sodium channel is 100 to 1000 nM.
The matching figures for `Cc1noc2cc3c(cc12)C1(CO3)C(=O)N(Cc2ncccc2C(F)(F)F)c2ccccc21` (stereo not drawn) [Example 9.42, 3-methyl-1′-{[3-(trifluoromethyl)pyridin-2-yl]methyl}spiro[furo[3,2-f][1,2]benzisoxazole-5,3′-indol]-2′(1′H)-one]: 221 to 222 °C, over 50% and 100 to 1000 nM.
The matching figures for `O=C1N(CCCOCc2ccccc2)c2ccccc2C12COc1cc3c(cc12)OCCO3` (stereo not drawn) [Example 9.43, 1′-[3-(benzyloxy)propyl]-2,3-dihydrospiro[furo[2,3-g][1,4]-benzodioxine-8,3′-indol]-2′(1′H)-one]: 37 to 38 °C, under 50% and 1 to 100 nM.
The matching figures for `CCOC(=O)CN1C(=O)C2(COc3cc4c(cc32)OCCO4)c2ccccc21` (stereo not drawn) [Example 9.44, ethyl (2′-oxo-2,3-dihydrospiro[furo[2,3-g][1,4]benzodioxine-8,3′-indol]-1′(2′H)-yl)acetate]: 58 to 59 °C, under 50% and 1 to 100 nM.
In the case of `CC1(C)OC[C@H](CN2C(=O)C3(COc4cc5c(cc43)OCCO5)c3ccccc32)O1` (stereo partly drawn) [Example 9.45, 1′-{[(4S)-2,2-dimethyl-1,3-dioxolan-4-yl}methyl]-2,3-dihydrospiro[furo[2,3-g][1,4]benzodioxine-8,3′-indol]-2′(1′H)-one], the melting point lay in the range of 55 to 57 °C. Besides, the inhibition at 10 µM on CYP3A4 was over 50%. The IC50 with sodium channel is 1 to 100 nM.
On to `COc1ccc(CN2C(=O)C3(COc4cc(OC)c(C#N)cc43)c3ccccc32)cc1` (stereo not drawn) [Example 9.46, 6-methoxy-1′-(4-methoxybenzyl)-2′-oxo-1′,2′-dihydrospiro[1-benzofuran-3,3′-indole]-5-carbonitrile], for which the melting point was 207 to 208 °C. Moreover, the inhibition at 10 µM on CYP3A4 is over 50%. The IC50 in the data set on sodium channel was in the range of 100 to 1000 nM.

For orientation: melting point means the temperature, or range, at which the solid turns liquid. The inhibition is the drop in the measured response relative to a control, in per cent. The term IC50 denotes the concentration needed to halve the response being measured.
